Results published in PubChem BioAssay (NCI).
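A five-concentration, 48-hour dose response in 96-well plates underlies each endpoint, interpolated linearly between surrounding concentrations. TGI: concentration producing complete growth inhibition.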

Tests used:
Assay in all cases: inhibition of tumour cell growth, NCI panel, 48 h
786-0 renal = system: 786-0 renal
CAKI-1 renal = system: CAKI-1 renal
CCRF-CEM leukemia = system: CCRF-CEM leukemia
EKVX NSCLC = system: EKVX NSCLC
HCT-15 colon = system: HCT-15 colon
HL-60(TB) leukemia = system: HL-60(TB) leukemia
HT29 colon = system: HT29 colon
IGROV1 ovarian = system: IGROV1 ovarian
LOX IMVI melanoma = system: LOX IMVI melanoma
MALME-3M melanoma = system: MALME-3M melanoma
NCI-H23 lung = system: NCI-H23 lung
NCI-H460 lung = system: NCI-H460 lung
OVCAR-8 ovarian = system: OVCAR-8 ovarian
SK-OV-3 ovarian = system: SK-OV-3 ovarian
UO-31 renal = system: UO-31 renal
M14 melanoma = system: M14 melanoma
OVCAR-4 ovarian = system: OVCAR-4 ovarian
BT-549 breast = system: BT-549 breast
MDA-MB-435 = system: MDA-MB-435
T-47D breast = system: T-47D breast

Compound | TGI (786-0 renal) [µM] | TGI (CAKI-1 renal) [µM] | TGI (CCRF-CEM leukemia) [µM] | TGI (EKVX NSCLC) [µM] | TGI (HCT-15 colon) [µM] | TGI (HL-60(TB) leukemia) [µM] | TGI (HT29 colon) [µM] | TGI (IGROV1 ovarian) [µM] | TGI (LOX IMVI melanoma) [µM] | TGI (MALME-3M melanoma) [µM] | TGI (NCI-H23 lung) [µM] | TGI (NCI-H460 lung) [µM] | TGI (OVCAR-8 ovarian) [µM] | TGI (SK-OV-3 ovarian) [µM] | TGI (UO-31 renal) [µM] | TGI (M14 melanoma) [µM] | TGI (OVCAR-4 ovarian) [µM] | TGI (BT-549 breast) [µM] | TGI (MDA-MB-435) [µM] | TGI (T-47D breast) [µM]
Nc1nc(N)c2ncn(CCOC(c3ccccc3)P(=O)(O)O)c2n1 (configuration not stated) | > 100 | > 100 | > 100 | > 100 | > 100 | > 100 | > 100 | > 100 | > 100 | > 100 | > 100 | > 100 | > 100 | > 100 | > 100 |  |  |  |  | 
COCN(C)c1nc(N(C)C)nc(N(C)C)n1 | > 100 | > 100 | > 100 | > 100 | > 100 | > 100 | > 100 | > 100 | > 100 | > 100 | > 100 | > 100 | > 100 | > 100 | > 100 | > 100 | > 100 |  |  | 
CC1(C)c2ccccc2N2O[C@@H]3C(=O)N(c4ccccc4)C(=O)[C@@H]3C21c1ccccc1 (some centres not stated) | > 100 | > 100 | > 100 | > 100 | > 100 | > 100 | > 100 | > 100 | > 100 | > 100 | > 100 |  | > 100 | > 100 | > 100 | > 100 |  |  |  | 
COC(=O)c1c(-c2cc(OC)c(OC)c(OC)c2)oc2ccccc2c1=O | > 100 | > 100 | > 100 | > 100 | > 100 | > 100 | > 100 | > 100 | > 100 | > 100 | > 100 | > 100 | > 100 | > 100 | > 100 | > 100 | > 100 |  |  | 
CCN(CC)C(=S)SCC(=O)Nc1nc2c(s1)CCCC2 | > 100 |  | > 100 |  | > 100 | 47.6 | > 100 | > 100 | > 100 | > 100 | > 100 | > 100 | > 100 | > 100 | > 100 | > 100 | > 100 |  |  | 
N#CC(C#N)=c1c2ccccc2c(=C(C#N)C#N)c2ccccc12 | 30.6 | 28.6 | 50.9 |  | 65 | 59.2 | 39.5 | 30.2 | 40.5 |  | 43.7 | 63.6 | 42.7 | 44.4 |  | 32.8 |  | 65 | 40.1 | 
CC1(C)Cc2c(oc3ncnc(N)c23)CS1 | > 100 | > 100 | > 100 | > 100 | > 100 |  | > 100 | > 100 | > 100 | > 100 | > 100 | > 100 | > 100 | > 100 | > 100 | > 100 | > 100 |  |  | 
COc1ccc(OC)c(NC(=O)C(=O)CC(=O)c2sc(-n3nc(-c4ccccc4)cc3-c3ccccc3)nc2C)c1 | > 100 | > 100 | > 100 |  | > 100 | > 100 | > 100 | > 100 | > 100 | > 100 | > 100 | > 100 | > 100 | > 100 | > 100 | > 100 | > 100 |  |  | 
COc1ccc(N=Nc2ccc3oc(=O)c(C(=O)Nc4ccccc4C)cc3c2)cc1 | > 10 | > 10 |  | > 10 | > 10 |  | > 10 | > 10 | > 10 | > 10 | > 10 | > 10 | > 10 | > 10 | > 10 | > 10 | > 10 |  | > 10 | > 10
CN1C(=O)C(C(=O)Nc2ccccn2)C2C[C@@]1(C)Oc1ccccc12 (some centres not stated) | > 100 | > 100 | > 100 | > 100 | > 100 | > 100 | > 100 | > 100 | > 100 | > 100 | > 100 | > 100 | > 100 | > 100 | > 100 | > 100 | > 100 | > 100 | > 100 | 
S=C(N/N=C/c1ccccn1)N1CC2CCC(CC2)C1 | 0.242 | 1.82 |  | 7.05 | 14.9 | 0.143 | 17.3 |  | 12.4 | 11.4 | 7.7 | 0.207 | 0.252 | 5.7 | 2.24 | 0.209 | 20.4 | 12.5 | 15.1 | 
COC(=O)CC(C(C(=O)OC)C(=O)OC)N1C(=O)OC(c2ccccc2)C1c1ccccc1 (configuration not stated) | > 100 | 39 | > 100 | > 100 | > 100 | > 100 | > 100 | > 100 | > 100 | > 100 | > 100 | > 100 | > 100 | > 100 | > 100 | > 100 | > 100 |  |  | 
N#Cc1ccc(Oc2ccccc2)cc1C#N | > 100 | > 100 | 56.9 | > 100 | 43.3 | > 100 | > 100 | > 100 | 38.7 | > 100 | > 100 | > 100 | > 100 | > 100 | > 100 | > 100 | > 100 |  |  | 
C[n+]1c2ccccc2c(CNCC(=O)O)c2ccccc21 | 2.58 | 1.84 |  | 12.3 | 4.94 |  | 12.1 | 22.6 |  | 28.6 | 24.8 | 14.8 | 7.84 | 15.7 | 22.8 | 18.4 | 25.2 |  |  | 
